# Reference: US9315464B1 (priority 2013, dated 2016)
# What was measured:
# [1] = test system: influenza A reporter assay system (viral UTR promoter / viral RNA-dependent RNA polymerase); type: cell-based, Influenza A virus (mouse B16-F10 melanoma cells)
# [2] = test system: influenza A/Puerto Rico/8/34 virus; assay: Hemagglutination assay of influenza A replication in MDCK cells; type: cell-based; settings: 75 uM compound, influenza A/Puerto Rico/8/34 dilution series, FIG. 5A
# [3] = test system: non-specific promoter (BAX promoter-driven luciferase) in HEK-293T cells; assay: irrelevant promoter-containing cell-based reporter assay (luciferase driven by the BAX promoter, control); settings: BAX promoter luciferase in HEK-293T cells, indicator of non-specific toxicity
smiles,measurement,setting,value
"O=C(Nc1ccc(S(=O)(=O)Nc2nccs2)cc1)c1cc(-c2ccccc2)nc2ccccc12 [A0259, 2-phenyl-N-{4-[(1,3-thiazol-2-yl)sulfamoyl]phenyl}quinoline-4-carboxamide]",inhibition of the influenza reporter system,[1],most dramatic inhibition
same,"inhibition of influenza A viral replication in recipient cells (hemagglutination, settling cell buttons)",[2],viral dilutions below a thousand-fold from stock were inhibited from successfully replicating
same,impact on a non-specific promoter,[3],smallest impact
